Source: ChEMBL document CHEMBL4190279 (Eur J Med Chem, 2017)

What was measured:
[1] = Selectivity index, ratio of GI50 for human hTERT-BJ cells to GI50 for human WiDr cells; assay type: toxicity; conditions: hTERT-BJ cells versus WiDr cells, read-out: RatioGI50
Acetylcholinesterase [2] = target: T1, Acetylcholinesterase (Electrophorus electricus, UniProt O42275); experiment: Mixed-type inhibition of electric eel AChE assessed as enzyme-inhibitor complex using p-nitrophenyl acetate as substrate by Lineweaver-Burk plot analysis
Acetylcholinesterase [3] = target: T1, Acetylcholinesterase; experiment: Mixed-type inhibition of electric eel AChE assessed as enzyme-substrate-inhibitor complex using p-nitrophenyl acetate as substrate by Lineweaver-Burk plot analysis
Cholinesterase [4] = target: T2, Cholinesterase (Equus caballus, UniProt P81908); experiment: Mixed-type inhibition of equine serum BuChE assessed as enzyme-inhibitor complex using p-nitrophenyl butyrate as substrate by Lineweaver-Burk plot analysis
Cholinesterase [5] = target: T2, Cholinesterase; experiment: Mixed-type inhibition of equine serum BuChE assessed as enzyme-substrate-inhibitor complex using p-nitrophenyl butyrate as substrate by Lineweaver-Burk plot analysis
[6] = Selectivity index, ratio of Ki for equine serum BuChE assessed as enzyme-substrate-inhibitor complex to Ki for electric eel AChE assessed as enzyme-substrate-inhibitor complex
Acetylcholinesterase [7] = target: T3, Acetylcholinesterase (Homo sapiens, UniProt P22303); experiment: Inhibition of human serum AChE using acetylthiocholine iodide as substrate preincubated for 20 mins followed by substrate addition measured after 5 mins by Ellman's method
Acetylcholinesterase [8] = target: T3, Acetylcholinesterase; experiment: Potency index, ratio of cystamine-tacrine IC50 to compound IC50 for human AChE
[9] = target: Amyloid-beta precursor protein (Homo sapiens) (UniProt P05067); experiment: Inhibition of amyloid beta (1 to 42) (unknown origin) self aggregation at 50 uM after 24 hrs by ThT-based fluorometric method relative to control
N2a = experiment: Cytotoxicity against mouse N2A cells assessed as reduction in cell viability at 50 uM after 24 hrs by MTT assay; assay type: cell-based
[10] = GPx-like activity of the compound assessed as velocity for H2O2 reduction by measuring oxidation of PhSH to (PhS)2 at 50 uM measured for 180 secs by spectrophotometric analysis; assay type: functional
[11] = GPx-like activity of the compound assessed as H2O2 reduction by measuring oxidation of PhSH to (PhS)2 at 50 uM measured for 180 secs by spectrophotometric analysis relative to control; assay type: functional
HBL-100 [12] = experiment: Potency index, ratio of 5-FU GI50 to compound GI50 for human HBL100 cells; assay type: functional
[13] = GPx-like activity of the compound assessed as half life for H2O2 reduction by measuring oxidation of PhSH to (PhS)2 at 50 uM measured for 180 secs by spectrophotometric analysis relative to control; assay type: functional
HeLa [14] = experiment: Potency index, ratio of 5-FU GI50 to compound GI50 for human HeLa cells; assay type: functional
SW1573 [15] = experiment: Potency index, ratio of 5-FU GI50 to compound GI50 for human SW1573 cells; assay type: functional
T47D [16] = experiment: Potency index, ratio of 5-FU GI50 to compound GI50 for human T47D cells; assay type: functional
WiDr [17] = experiment: Potency index, ratio of 5-FU GI50 to compound GI50 for human WiDr cells; assay type: functional
HBL-100 [18] = experiment: Potency index, ratio of cisplatin GI50 to compound GI50 for human HBL100 cells; assay type: functional
HeLa [19] = experiment: Potency index, ratio of cisplatin GI50 to compound GI50 for human HeLa cells; assay type: functional
SW1573 [20] = experiment: Potency index, ratio of cisplatin GI50 to compound GI50 for human SW1573 cells; assay type: functional
T47D [21] = experiment: Potency index, ratio of cisplatin GI50 to compound GI50 for human T47D cells; assay type: functional
WiDr [22] = experiment: Potency index, ratio of cisplatin GI50 to compound GI50 for human WiDr cells; assay type: functional
A549 [23] = experiment: Potency index, ratio of cisplatin GI50 to compound GI50 for human A549 cells; assay type: functional
A549 [24] = experiment: cells; conditions: Homo sapiens, A549, 48 h
Description: Antiproliferative activity against human A549 cells after 48 hrs by SRB assay

HBL-100 [25] = experiment: cells; conditions: Homo sapiens, HBL-100, 48 h
Description: Antiproliferative activity against human HBL100 cells after 48 hrs by SRB assay

HeLa [26] = experiment: cells; conditions: Homo sapiens, 48 h
Description: Antiproliferative activity against human HeLa cells after 48 hrs by SRB assay

SW1573 [27] = experiment: cells; conditions: Homo sapiens, SW1573, 48 h
Description: Antiproliferative activity against human SW1573 cells after 48 hrs by SRB assay

T47D [28] = experiment: cells; conditions: Homo sapiens, 48 h
Description: Antiproliferative activity against human T47D cells after 48 hrs by SRB assay

WiDr [29] = experiment: cells; conditions: Homo sapiens, 48 h
Description: Antiproliferative activity against human WiDr cells after 48 hrs by SRB assay

in vitro = conditions: human, hTERT-BJ cells
Description: Antiproliferative activity against human hTERT-BJ cells after 48 hrs by SRB assay

Acetylcholinesterase [30] = target: T1, Acetylcholinesterase; experiment: Competitive inhibition of electric eel AChE assessed as enzyme-inhibitor complex using p-nitrophenyl acetate as substrate by Lineweaver-Burk plot analysis
Acetylcholinesterase [31] = target: T1, Acetylcholinesterase; experiment: Non-competitive inhibition of electric eel AChE assessed as enzyme-inhibitor complex using p-nitrophenyl acetate as substrate by Lineweaver-Burk plot analysis
Acetylcholinesterase [32] = target: T1, Acetylcholinesterase; experiment: Non-competitive inhibition of electric eel AChE assessed as enzyme-substrate-inhibitor complex using p-nitrophenyl acetate as substrate by Lineweaver-Burk plot analysis
Cholinesterase [33] = target: T2, Cholinesterase; experiment: Non-competitive inhibition of equine serum BuChE assessed as enzyme-inhibitor complex using p-nitrophenyl butyrate as substrate by Lineweaver-Burk plot analysis
Cholinesterase [34] = target: T2, Cholinesterase; experiment: Non-competitive inhibition of equine serum BuChE assessed as enzyme-substrate-inhibitor complex using p-nitrophenyl butyrate as substrate by Lineweaver-Burk plot analysis
[35] = Potency index, ratio of compound velocity to ebselen velocity for GPx-like activity assessed as H2O2 reduction by measuring oxidation of PhSH to (PhS)2; assay type: functional
[36] = Potency index, ratio of compound velocity to diphenyl diselenide velocity for GPx-like activity assessed as H2O2 reduction by measuring oxidation of PhSH to (PhS)2; assay type: functional
Cholinesterase [37] = target: T2, Cholinesterase
Description: Competitive inhibition of equine serum BuChE assessed as enzyme-inhibitor complex using p-nitrophenyl butyrate as substrate by Lineweaver-Burk plot analysis

[38] = target: Amyloid-beta precursor protein (Homo sapiens) (UniProt P05067); experiment: Inhibition of amyloid beta (1 to 42) (unknown origin) self aggregation at 50 uM relative to control

T2 sequence (P81908 whole entry): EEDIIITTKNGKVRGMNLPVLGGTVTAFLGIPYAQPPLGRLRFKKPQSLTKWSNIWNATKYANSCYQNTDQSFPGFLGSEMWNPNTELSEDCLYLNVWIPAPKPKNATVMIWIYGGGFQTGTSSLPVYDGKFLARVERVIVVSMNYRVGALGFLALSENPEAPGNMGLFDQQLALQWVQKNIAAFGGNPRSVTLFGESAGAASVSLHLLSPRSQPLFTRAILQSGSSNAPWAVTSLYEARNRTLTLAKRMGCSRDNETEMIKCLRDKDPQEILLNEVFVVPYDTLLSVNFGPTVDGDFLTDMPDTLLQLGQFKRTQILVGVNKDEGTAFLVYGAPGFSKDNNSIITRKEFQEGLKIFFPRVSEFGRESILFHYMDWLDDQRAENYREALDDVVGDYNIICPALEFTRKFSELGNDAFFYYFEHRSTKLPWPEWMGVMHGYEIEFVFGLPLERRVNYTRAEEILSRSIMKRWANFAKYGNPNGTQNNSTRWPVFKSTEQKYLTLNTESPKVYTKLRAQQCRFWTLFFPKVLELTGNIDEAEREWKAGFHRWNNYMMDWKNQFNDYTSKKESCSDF
T1 sequence (O42275 whole entry): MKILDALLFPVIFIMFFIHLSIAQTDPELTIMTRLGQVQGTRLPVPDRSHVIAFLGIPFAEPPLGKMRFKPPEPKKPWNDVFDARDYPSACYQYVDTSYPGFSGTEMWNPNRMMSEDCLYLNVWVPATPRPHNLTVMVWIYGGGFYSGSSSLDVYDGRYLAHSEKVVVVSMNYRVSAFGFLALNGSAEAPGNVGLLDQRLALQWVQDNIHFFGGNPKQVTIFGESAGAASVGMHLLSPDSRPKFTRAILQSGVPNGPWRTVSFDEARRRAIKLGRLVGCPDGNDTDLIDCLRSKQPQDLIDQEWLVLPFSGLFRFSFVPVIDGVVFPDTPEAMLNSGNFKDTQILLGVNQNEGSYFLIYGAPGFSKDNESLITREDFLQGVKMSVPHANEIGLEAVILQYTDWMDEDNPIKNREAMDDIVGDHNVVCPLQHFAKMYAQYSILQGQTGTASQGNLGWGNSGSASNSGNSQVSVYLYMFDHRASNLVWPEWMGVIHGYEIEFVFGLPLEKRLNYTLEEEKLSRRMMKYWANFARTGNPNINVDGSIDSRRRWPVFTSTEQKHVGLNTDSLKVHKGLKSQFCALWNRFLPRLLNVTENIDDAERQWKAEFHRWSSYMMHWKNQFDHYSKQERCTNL
Amyloid-beta precursor protein (Homo sapiens), sequence (P05067 whole entry): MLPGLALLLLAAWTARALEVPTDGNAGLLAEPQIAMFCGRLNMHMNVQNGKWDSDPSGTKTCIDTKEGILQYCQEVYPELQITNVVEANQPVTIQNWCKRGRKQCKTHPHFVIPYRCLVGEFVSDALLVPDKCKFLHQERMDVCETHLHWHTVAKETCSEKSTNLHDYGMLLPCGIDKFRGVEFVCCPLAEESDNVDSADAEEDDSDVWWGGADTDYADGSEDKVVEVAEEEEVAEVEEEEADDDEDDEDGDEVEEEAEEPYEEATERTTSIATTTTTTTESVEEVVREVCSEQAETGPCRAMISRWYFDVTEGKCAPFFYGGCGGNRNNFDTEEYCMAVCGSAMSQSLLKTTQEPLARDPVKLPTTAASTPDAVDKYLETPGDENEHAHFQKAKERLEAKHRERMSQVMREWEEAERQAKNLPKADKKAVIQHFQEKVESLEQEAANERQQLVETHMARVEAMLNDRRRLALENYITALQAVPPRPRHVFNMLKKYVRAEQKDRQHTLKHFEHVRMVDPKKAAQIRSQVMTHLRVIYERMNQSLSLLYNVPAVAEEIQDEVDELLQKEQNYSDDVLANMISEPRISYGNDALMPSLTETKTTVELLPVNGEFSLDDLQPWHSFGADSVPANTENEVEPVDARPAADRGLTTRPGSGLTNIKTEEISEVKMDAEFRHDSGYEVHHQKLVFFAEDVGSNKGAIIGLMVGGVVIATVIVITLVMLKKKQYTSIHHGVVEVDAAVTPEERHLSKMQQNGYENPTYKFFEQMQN
T3 sequence (P22303 whole entry): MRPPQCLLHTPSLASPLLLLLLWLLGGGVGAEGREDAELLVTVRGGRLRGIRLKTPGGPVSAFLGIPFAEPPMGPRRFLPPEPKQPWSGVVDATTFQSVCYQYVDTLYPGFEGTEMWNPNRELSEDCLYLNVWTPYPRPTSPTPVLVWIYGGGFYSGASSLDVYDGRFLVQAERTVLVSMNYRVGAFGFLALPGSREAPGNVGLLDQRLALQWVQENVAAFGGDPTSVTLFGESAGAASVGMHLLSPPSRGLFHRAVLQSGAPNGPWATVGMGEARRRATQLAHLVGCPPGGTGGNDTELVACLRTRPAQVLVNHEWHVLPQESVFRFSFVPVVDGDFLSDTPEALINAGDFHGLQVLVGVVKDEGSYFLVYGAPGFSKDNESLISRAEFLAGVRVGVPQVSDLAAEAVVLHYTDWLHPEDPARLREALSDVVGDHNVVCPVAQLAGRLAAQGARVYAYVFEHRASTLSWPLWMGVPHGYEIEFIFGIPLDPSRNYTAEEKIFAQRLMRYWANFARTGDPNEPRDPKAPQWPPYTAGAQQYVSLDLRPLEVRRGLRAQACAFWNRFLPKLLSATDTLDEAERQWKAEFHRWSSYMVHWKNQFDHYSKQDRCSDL

| Compound | Ki (Cholinesterase [4]) [nM] | Ki (Cholinesterase [5]) [nM] | Ratio Ki [6] | Activity [10] [µM/min] | fold change (FC) [11] | T1/2 [13] [h] | GI50 (A549 [24]) [nM] | GI50 (HBL-100 [25]) [nM] | GI50 (HeLa [26]) [nM] | GI50 (SW1573 [27]) [nM] | GI50 (T47D [28]) [nM] | GI50 (WiDr [29]) [nM] | further results |
| --- | --- | --- | --- | --- | --- | --- | --- | --- | --- | --- | --- | --- | --- |
| c1ccc2c(NCCCCCSSCCCCCNc3c4c(nc5ccccc35)CCCC4)c3c(nc2c1)CCCC3 | 166 | 422 | 74 | 35.5 | 4.6 | 1.17 | 1400 | 1200 | 1000 | 290 | 950 | 300 | selectivity ratio [1]: ≤ 4.7; Ki (Acetylcholinesterase [2]): 3.1 nM; Ki (Acetylcholinesterase [3]): 5.7 nM; IC50 (Acetylcholinesterase [7]): 1.62 nM; Ratio IC50 (Acetylcholinesterase [8]): 3; inhibition [9]: 61.8%; Activity (N2a): Non-Toxic; RatioGI50 (HBL-100 [12]): <=306; RatioGI50 (HeLa [14]): <=306; RatioGI50 (SW1573 [15]): <=306; RatioGI50 (T47D [16]): <=306; RatioGI50 (WiDr [17]): <=306; RatioGI50 (HBL-100 [18]): <=162; RatioGI50 (HeLa [19]): <=162; RatioGI50 (SW1573 [20]): <=162; RatioGI50 (T47D [21]): <=162; RatioGI50 (WiDr [22]): <=162; RatioGI50 (A549 [23]): <=162; GI50 at 48 h (in vitro): 1400 nM |
| N#CSCCCCCCNc1c2c(nc3ccccc13)CCCC2 | 252 | 673 |  | 21.6 | 2.8 | 1.93 | 8300 | 11000 | 8100 | 5100 | 5500 | 2400 | Ki (Acetylcholinesterase [30]): 18.5 nM |
| COc1ccc(NC(=[Se])NCCCCCCNc2c3c(nc4ccccc24)CCCC3)cc1 |  |  | 1.1 | 82.9 | 10.6 | 0.503 |  |  |  |  |  |  | Ki (Acetylcholinesterase [31]): 26.6 nM; Ki (Acetylcholinesterase [32]): 26.6 nM; Ki (Cholinesterase [33]): 28.6 nM; Ki (Cholinesterase [34]): 28.6 nM; Ratio [35]: 41.4; Ratio [36]: 5.6 |
| N#C[Se]CCCCCNc1c2c(nc3ccccc13)CCCC2 |  |  |  | 22.4 | 2.9 | 1.86 | 1200 | 1100 | 370 | 650 | 700 | 650 | Ki (Acetylcholinesterase [30]): 34.5 nM; Ki (Cholinesterase [37]): 206 nM; GI50 at 48 h (in vitro): 360 nM |
| N#CSCCCCCNc1c2c(nc3ccccc13)CCCC2 |  |  |  | 23.1 | 3 | 1.8 | 14000 | 15000 | 11000 | 15000 | 8300 | 4100 | Ki (Acetylcholinesterase [31]): 50.1 nM; Ki (Acetylcholinesterase [32]): 50.1 nM; Ki (Cholinesterase [37]): 228 nM |
| O=C(C[Se]c1ccccc1)Nc1c2c(nc3ccccc13)CCCC2 | 518 | 1710 | 0.5 | 3.6 | 0.5 | 11.6 | 37000 | 35000 | 32000 | > 100000 | 53000 | > 100000 | Ki (Acetylcholinesterase [2]): 8420 nM; Ki (Acetylcholinesterase [3]): 3540 nM |
| c1ccc2c(NCCSSCCNc3c4c(nc5ccccc35)CCCC4)c3c(nc2c1)CCCC3 |  |  |  |  |  |  |  |  |  |  |  |  | inhibition [38]: 66.3% |
